Measurements from publication PMC10989020, “Preclinical characterization of a non-peptidomimetic HIV protease inhibitor with improved metabolic stability” (Antimicrobial Agents and Chemotherapy, 2024).
Read-outs that look alike come from different tables or passages of the source.

Experiments:
[1] = Cytotoxicity in Gal-HepG2; assay type: cell-based; conditions: human, Gal-HepG2 cells
Protocol: (§1) Compound cytotoxicity assessment in MT-4 cells, primary CD4+ T lymphocytes, and MDMs was carried out using a protocol identical to the antiviral assay except uninfected cells were used and tested with higher concentration ranges of test compounds. Assessment of cytotoxicity in additional human cell lines (Gal-PC3, Gal-HepG2, HEp-2, Huh-7, MRC-5, HepG2-NTCP, Huh7-Lunet HCV 1b and 2a replicons, NHBE, A549-hACE2) and primary human PBMCs (resting and stimulated with PHA/IL-2) and hepatocytes have been described previously ([19]). For all cytotoxicity assays, the CC50 value for puromycin was determined as a positive internal control and to assess assay sensitivity in each cell type. The effect of tested compounds on cell viability was measured using a CellTiter-Glo readout, performed according to the manufacturer’s recommendations.

[2] = molecular target: non-HIV aspartic proteases (BACE, cathepsin D, cathepsin E, pepsin, renin, and napsin); assay type: biochemical; conditions: IC50 considered equal to Ki(app)
Protocol: Except for the substrate used in the renin assay, all fluorogenic substrates and recombinant enzymes were purchased from R&D Systems and the assays were performed according to the manufacturer’s recommended procedure with minor changes. For the BACE1 assay, recombinant human BACE1 (50 nM) and test compound at various concentrations were added to a reaction buffer containing 20 mM sodium acetate at pH 4.8 with 0.06% Triton X-100 and 1% DMSO. After a 15-minute pre-incubation, the enzymatic reaction was initiated by the addition of fluorogenic substrate to a final concentration of 1 µM and a total volume of 100 µL. For the Cat D assay, after a 15-minute pre-incubation, the enzymatic reaction was initiated by the addition of the fluorogenic substrate to a final concentration of 4 µM and a total volume of 100 µL. […] Activated Cat E (0.5 nM) and test compound at various concentrations were added to the assay buffer containing 100 mM sodium acetate at pH 3.5 with 200 mM sodium chloride and 1% DMSO. After a 15-minute pre-incubation, the enzymatic reaction was initiated by the addition of the fluorogenic substrate to a final concentration of 20 µM and a total volume of 100 µL. […]
Enzymatic assay data were analyzed in GraphPad Prism (version 9.3.0) by curve fitting with a four-parameter logistic equation to determine inhibitor half-maximal inhibitory concentration (IC50) values.

Cytotoxicity in Huh-7 = assay type: cell-based; conditions: human, Huh-7 cells
Protocol: as §1

[3] = system: panel of 49 patient-derived HIV-1 reporter viruses with PI resistance-associated substitutions; assay type: cell-based
[4] = Cytotoxicity in cell lines of the non-HIV virus panel (summary); assay type: cell-based; conditions: human, HepG2-NTCP, Huh7-Lunet replicon cells, NHBE, A549-ACE2, read-out: CC50 range in the corresponding cell lines
Protocol: as §1

[5] = system: HIV-1 Gag (p55) polyprotein cleavage; assay: Gag polyprotein processing immunoblot in transfected HEK293T cells; assay type: cell-based; conditions: 2 days post-transfection, anti-p24 immunoblot
[6] = Predicted clearance from cynomolgus monkey liver microsome fractions; assay type: in vitro ADME
HIV-1 BaL = assay: p24 production antiviral assay in CD4+ T-lymphocytes; assay type: cell-based; conditions: Human immunodeficiency virus 1, T-lymphocyte, HIV-1BaL infected
Excerpt: Antiviral assays performed in HIV-1BaL infected CD4 +T-lymphocytes and monocyte-derived macrophages (MDMs) have been described previously ([18]). Cell-free supernatants derived from the CD4 +T cell and macrophage cultures were harvested 7- and 12-days post-infection, respectively, and the amount of HIV present was quantified by p24 antigen enzyme-linked immunosorbent assay (ELISA, Perkin Elmer, Waltham, MA) performed according to the manufacturer’s protocol.

HCV-2a = assay: microbe, parasite or virus in culture; conditions: Hepatitis C virus, Huh-7
[7] = Cytotoxicity in primary human hepatocytes; assay type: cell-based
Protocol: as §1

[8] = Cytotoxicity in stimulated PBMCs; assay type: cell-based; conditions: human
Protocol: as §1

[9] = system: HIV-1LAI wild type and site-directed PR mutants; assay: microbe, parasite or virus in culture; assay type: cell-based
HIV-1 IIIb = assay: Dose-escalation resistance selection in MT-2 cells; assay type: cell-based
[10] = Cytotoxicity in monocyte-derived macrophages; assay type: cell-based; conditions: human, uninfected (mock infected) monocyte-derived macrophages
Protocol: as §1

[11] = system: HBV, HCV, RSV, SARS-CoV-2; assay: Antiviral activity against panel of non-HIV viruses (summary); conditions: read-out: EC50 range across non-HIV viruses
Protocol: Antiviral assays using appropriate cell lines infected with non-HIV viruses were also performed. […] The hepatitis B virus (HBV) surface antigen (HBsAg) antiviral assay was performed as previously described ([28]) using ND-654 as a positive control. The respiratory syncytial virus (RSV) A2 HEp-2 antiviral assay was performed as previously described ([29]) using YM-53403 as a positive control. The severe acute respiratory syndrome coronavirus 2 (SARS-CoV-2) antiviral assay was performed as described previously ([30]) using remdesivir as a positive control.

HCV-1b = assay: microbe, parasite or virus in culture; conditions: Hepatitis C virus, Huh-7
Cytotoxicity in HEp-2 = assay type: cell-based; conditions: human, HEp-2 cells
Protocol: as §1

Cytotoxicity in Gal-PC3 = assay type: cell-based; conditions: human, Gal-PC3 cells
Protocol: as §1

[12] = human
[13] = Metabolic stability of radiolabeled GS-9770 in human liver microsomes; assay type: in vitro ADME; conditions: radiolabeled GS-9770, human liver microsomes
[14] = Predicted clearance from dog liver microsome fractions; assay type: in vitro ADME
[15] = Cytotoxicity in HepG2-NTCP; assay type: cell-based; conditions: human, HepG2-NTCP cells
Protocol: as §1

[16] = Cytotoxicity across human cell types (summary ranges); assay type: cell-based; conditions: read-out: mean CC50 range
Protocol: as §1

HIV-1IIIb = assay: Two-drug in vitro combination assay in MT-2 cells (MacSynergy II); assay type: cell-based
Protocol: Anti-HIV-1 assays evaluating the in vitro antiviral effect of two-drug combinations were performed in MT-2 cells as previously described ([26]). Data were normalized to positive and negative controls in each plate and expressed as a percentage of protection from CPE-dependent cell death and analyzed with the MacSynergy II software. Combination data were analyzed at the 99% confidence level, with synergy/antagonism volumes defined as follows: high synergy (>100 µM^2%), moderate synergy (50 to <100 uM^2%), additivity (>−50 to <50 µM^2%), and antagonism (<−50 µM^2%).

[17] = Predicted clearance from rat liver microsome fractions; assay type: in vitro ADME
[18] = system: 20 HIV-1 clinical isolates; assay: Antiviral assay in PBMCs with HIV-1 clinical isolates (RT endpoint); assay type: cell-based; conditions: Human immunodeficiency virus 1, PBMC, 168 h, read-out: mean EC50
Protocol: Antiviral assays using fresh human PBMCs independently infected with a panel of clinical HIV-1 and HIV-2 isolates were performed by Southern Research as a contracted research study and assessed 7 days post-infection using reverse transcriptase (RT) endpoint assay. Antiviral assays using HIV-1 reporter viruses containing patient-derived sequences encoding all of PR and a portion of RT (amino acids 1–313) and conferring resistance to FDA-approved HIV PIs were performed by Monogram Biosciences Inc. (South San Francisco, CA) using their previously described Phenosense assay ([25]).

[19] = Repeated oral administration in dogs; assay type: in vivo; conditions: high doses

CC(C)(CC1(c2ccc(-c3cnn(C4CC4)n3)cc2)NC(=N)N(C(COC(=O)NC2(C(F)F)CC2)c2ccc(Cl)c(-c3ncnn3C(F)F)c2)C1=O)C(F)(F)F (centres unmarked) [GS-9770]
CC50 [1]: 13 ± 6 µM
Ki ([2]; read-out: Ki(app), lower end of range over six non-HIV proteases): 0.106 µM
Ki ([2]; read-out: Ki(app), upper end of range over six non-HIV proteases): > 100 µM
CC50 (Cytotoxicity in Huh-7): 17 ± 3 µM
loss in susceptibility ([3]; virus 8, virus 11 and virus 42): 3 fold
mutant vs wild-type HIV EC50 FC ([3]; virus 13 (L10I, M46I, G48V, I50V, V82A, L90M)): 21 fold
mutant vs wild-type HIV EC50 FC ([3]; virus 29 (L10F/L, D30N, I54V, N88D, L90M)): 12 fold
mutant vs wild-type HIV EC50 FC ([3]; virus 43 (L10I, M46L, I54V, V82A)): 11 fold
CC50 [4]: 4.7 to 15.1 µM
concentration at which Gag polyprotein cleavage and release of mature p24 substantially reduced [5]: 10 nM
concentration giving complete inhibition of p24 formation [5]: 100 nM
in vitro predicted blood CL [6]: 2.5 mL/min/kg
EC50 (HIV-1 BaL): 0.0085 ± 0.0025 µM
EC50 (HCV-2a): 10.4 ± 0.3 µM
CC50 [7]: 34 ± 16 µM
CC50 [8]: 9.1 ± 0.6 µM
EC50 ([9]; Human immunodeficiency virus 1, PR L24I M46L A77I V82A): 0.0059 ± 0.0032 µM
EC50 ([9]; Human immunodeficiency virus 1, PR L24I M46L I64V A77I V82A): 0.0224 ± 0.0073 µM
EC50 ([9]; Human immunodeficiency virus 1, PR M46L A77I V82A): 0.0083 ± 0.0018 µM
EC50 ([9]; Human immunodeficiency virus 1, PR V82A): 0.0082 ± 0.0032 µM
EC50 ([9]; Human immunodeficiency virus 1, Wild type (WT) HIV-1LAI): 0.0031 ± 0.0016 µM
GS-9770 concentration at variant first emergence (HIV-1 IIIb; variant L24I M46L A77I V82A): 100 nM
GS-9770 concentration at variant first emergence (HIV-1 IIIb; variant M46L A77I V82A): 100 nM
CC50 [10]: 16 ± 3 µM
EC50 [11]: 2.5 to 34 µM
EC50 (HCV-1b): 10.8 ± 0.5 µM
CC50 (Cytotoxicity in HEp-2): 17 ± 2 µM
CC50 (Cytotoxicity in Gal-PC3): 15 ± 4 µM
predicted plasma half-life in humans [12]: ~ 18.5 hours
predicted human plasma clearance [13]: 1.5 mL/min/kg
in vitro predicted blood CL [14]: 12 mL/min/kg
CC50 [15]: 8.4 ± 2 µM
CC50 ([16]; Gal-HepG2 and MRC-5 cells, five human cell lines (Gal-PC3, HEp-2, Huh7, Gal-HepG2, MRC-5)): 13 to 20 µM
CC50 ([16]; human, human cell lines and primary cells (15 cell types), across 15 different cell types): 4.7 to 34 µM
CC50 ([16]; primary human hepatocytes and PBMCs (stimulated and unstimulated)): 9.1 to 34 µM
Antagonism volume (HIV-1IIIb): −3 ± 3 µM^2.%
Combination effect (HIV-1IIIb): Additive
Synergy volume (HIV-1IIIb): 23 ± 14 µM^2.%
in vitro predicted blood CL [17]: 1.2 mL/min/kg
EC50 [18]: 0.0073 µM
finding after repeated oral administration [19]: bronchoalveolar inflammation observed in the lungs of dogs
